Source: paper PMC6278656, “Synthesis and Biological Evaluation of Phaeosphaeride A Derivatives as Antitumor Agents” (Molecules, 2018)

Experiments:
Format in all cases: cell-based
[1] = test system: human acute monocytic leukemia THP-1 cells; assay: MTT cytotoxicity assay, THP-1; conditions: 72 h, n = 3, ± SD, read-out: Suspension Cell Cultures, IC50 THP-1
Protocol: (§1) All newly synthesized PPA derivatives 1–8 were evaluated for their anti-proliferative activity against human breast cancer MCF-7, human prostate adenocarcinoma PC-3, human colorectal cancer HCT-116, human lung cancer A549, human chronic myelogenous leukemia K562, human acute monocytic leukemia THP-1, human multiple myeloma RPMI8226, human acute T-cell leukemia Jurkat, human multiple myeloma NCI-H929, and human embryonic fibroblasts HEF cell lines by MTT assays. All cells were incubated with different concentrations of PPA derivatives for 72 h, with etoposide and PPA used as reference compounds. The anticancer activity of the tested compounds was described as the concentration of drug inhibiting 50% cell growth IC50 (Table 1 and Table 2).
(§2) ^1H-NMR spectra were acquired on an AVANCE III 400 MHz NMR spectrometer (Bruker, Rheinstetten, Germany) in CDCl3. Optical rotations were acquired on a Polaar 3005 Polarimeter (Optical Activity, Huntingdon, Great Britain) using a 2.5 cm cell with a Na 589 nm filter and the concentration of samples was denoted as c. Mass spectra data were acquired on a TSQ Quantum Access Max Mass spectrometer (Thermo Fisher Scientific, Waltham, MA, USA). High-resolution mass spectra (HRMS) were acquired on a LTQ Orbitrap Velos spectrometer (Thermo Scientific) and on a Bruker MicrOTOF. FTIR spectra were acquired on an IR Affinity-1 spectrometer (Shimadzu, Thermo Scientific). Organic solvents used were dried by standard methods when necessary. Commercially available reagents were used without further purification. All reactions were monitored by TLC with silica gel coated plates (EMD/Merck KGaA, Darmstadt, Germany), with visualization by UV light and by charring with 0.1% ninhydrin in EtOH. Column chromatography was performed using Merck 60 Å 70–230 mesh silica gel. The optical density was determined using a Multiskan FC spectrophotometer (Thermo Scientific) at a wavelength of 540 nm when using the MTT assay.
(§3) MCF-7 (breast cancer), PC-3 (prostate adenocarcinoma), HCT-116 (colorectal cancer cell), A549 (lung cancer), K562 (chronic myelogenous leukemia), THP-1 (acute monocytic leukemia), and RPMI8226 (multiple myeloma), Jurkat (acute T-cell leukemia), HEF (human embryonic fibroblasts) was purchased from the Russian Academy of Sciences Cells Bank (Institute of Cytology of the Russian Academy of Sciences, Saint Petersburg, Russian Federation). Multiple myeloma cell line NCI-H929 was purchased from ATCC (USA). The MCF-7, A549 and HEF (human embryonic fibroblasts) were cultured in DMEM medium. Other cell lines were cultured in RPMI1640 medium, (PanEco, Russia) supplemented with 10% fetal bovine serum (GE Healthcare LifeSciences, São Paulo, Brazil), and gentamicin at a concentration of 40 μg/mL and cultured at 37 °C in a humidified atmosphere containing 5% CO2. All experiments were performed with cells at passages 3 to 7 in the logarithmic phase of growth.
(§4) Cells were seeded into 96-well plates of 5 × 10^3 for adhesive cultures and 20 × 10^3 for suspension cultures per well in 90 μL and 135 μL of culture medium, respectively. The test substances were dissolved in DMSO to a concentration of 1 × 10^−2 M. For subsequent dilution of the substances, a serum-free culture medium was used as the diluent. Final concentration of DMSO in wells was no more than 1%. […] Substances were added to the cells in 3–4 replicates after 24 h for adhesive cultures and immediately for suspension cultures. 10–15 μL of serum-free medium was added to the control wells with non-exposed cells. Cells were cultured for 72 h at 37 °C in an atmosphere of 5% CO2.

[2] = test system: human multiple myeloma NCI-H929 cells; assay: MTT cytotoxicity assay, NCI-H929; conditions: Homo sapiens, MTT, 72 h, n = 3, ± SD, read-out: Suspension Cell Cultures, IC50 NCI-Н929
Protocol: as §1, §2, §3, §4

[3] = test system: human prostate adenocarcinoma PC-3 cells; assay: MTT cytotoxicity assay, PC-3; conditions: Homo sapiens, MTT, 72 h, n = 3, ± SD, read-out: Adhesive Cell Cultures, IC50 PC-3
Protocol: as §1, §2, §3, §4

[4] = test system: human multiple myeloma RPMI8226 cells; assay: MTT cytotoxicity assay, RPMI8226; conditions: Homo sapiens, RPMI-8226; MTT, 72 h, n = 3, ± SD; read-out: Suspension Cell Cultures, IC50 RPMI8228
Protocol: as §1, §2, §3, §4

[5] = test system: human colorectal cancer HCT-116 cells; assay: MTT cytotoxicity assay, HCT-116; conditions: Homo sapiens, MTT, 72 h, n = 3, ± SD, read-out: Adhesive Cell Cultures, IC50 HCT-116
Protocol: as §1, §2, §3, §4

[6] = test system: human lung cancer A549 cells; assay: MTT cytotoxicity assay, A549; conditions: 72 h, n = 3, ± SD, read-out: Adhesive Cell Cultures, IC50 A549
Protocol: as §1, §2, §3, §4

[7] = test system: human breast cancer MCF-7 cells; assay: MTT cytotoxicity assay, MCF-7; conditions: MCF7, 72 h, n = 3, ± SD, read-out: Adhesive Cell Cultures, IC50 MCF-7
Protocol: as §1, §2, §3, §4

[8] = test system: human chronic myelogenous leukemia K562 cells; assay: MTT cytotoxicity assay, K562; conditions: Homo sapiens, MTT, 72 h, n = 3, ± SD, read-out: Suspension Cell Cultures, IC50 К562
Protocol: as §1, §2, §3, §4

[9] = test system: human embryonic fibroblasts HEF; assay: MTT cytotoxicity assay, HEF (control cells); conditions: Fibroblast, 72 h, n = 3, ± SD, read-out: Adhesive Cell Cultures, IC50 HEF
Protocol: as §1, §2, §3, §4

[10] = test system: human acute T-cell leukemia Jurkat cells; assay: MTT cytotoxicity assay, Jurkat; conditions: Homo sapiens, MTT, 72 h, n = 3, ± SD, read-out: Suspension Cell Cultures, IC50 Jurkat
Protocol: as §1, §2, §3, §4

Row | SMILES | IC50 [1] [µM] | IC50 [2] [µM] | IC50 [3] [µM] | IC50 [4] [µM] | IC50 [5] [µM] | IC50 [6] [µM] | IC50 [7] [µM] | IC50 [8] [µM] | IC50 [9] [µM] | IC50 [10] [µM]
1 | C=C1C2=C(C(=O)N1OC)[C@H](O)[C@@](C)(O)[C@H](CCCCC)O2 [PPA, phaeosphaeride A] | 19.1 ± 0.45 | 6.5 ± 0.3 | 32.1 ± 0.77 | 9.15 ± 0.64 | 24.2 ± 0.75 | 41.1 ± 2.6 | 20.3 ± 0.8 | 20.5 ± 1.46 | 19.1 ± 0.25 | 9.7 ± 0.42
2 | C=C1C2=C(C(=O)N1OC)[C@@H](N1CCC(O)CC1)[C@@](C)(O)[C@H](CCCCC)O2 [Compound 8, (2S,3R,4R)-3-Hydroxy-4-(4-hydroxypiperidin-1-yl)-6-methoxy-3-methyl-7-methylene-2-pentyl-3,4,6,7-tetra-hydropyrano[2,3-c]pyrrol-5(2H)-one] | 2.1 ± 0.28 | 1.87 ± 0.25 | 4.53 ± 0.4 | 1.4 ± 0.28 | 2.64 ± 0.05 | 9.4 ± 0.14 | 3.2 ± 0.52 | 4.9 ± 2.4 | 6.7 ± 0.23 | 2.6 ± 1.13
3 | C=CCN[C@@H]1C2=C(O[C@@H](CCCCC)[C@]1(C)O)C(=C)N(OC)C2=O [Compound 4, (2S,3R,4R)-4-(Allylamino)-3-hydroxy-6-methoxy-3-methyl-7-methylene-2-pentyl-3,4,6,7-tetrahydropyrano-[2,3-c]pyrrol-5(2H)-one] | 3.32 ± 0.1 | 2.35 ± 0.09 | 6.37 ± 0.18 | 6 ± 0.13 | 8.4 ± 0.24 | 12.7 ± 0.27 | 4.13 ± 0.23 | 10.5 ± 0.41 | 5.03 ± 0.15 | 3.27 ± 0.07
4 | C=C1C2=C(C(=O)N1OC)[C@@H](NCc1ccccc1)[C@@](C)(O)[C@H](CCCCC)O2 [Compound 5, (2S,3R,4R)-4-(benzylamino)-3-hydroxy-6-methoxy-3-methyl-7-methylene-2-pentyl-3,4,6,7-tetrahydro-pyrano[2,3-c]pyrrol-5(2H)-one] | 15.1 ± 0.36 | – | 24.7 ± 1.24 | 16 ± 0.16 | 12.9 ± 0.3 | 37.5 ± 1.33 | 35.7 ± 0.65 | 14.1 ± 0.48 | 53.1 ± 1.06 | 10.1 ± 0.44
5 | C=C1C2=C(C(=O)N1OC)[C@@H](NC)[C@@](C)(O)[C@H](CCCCC)O2 [Compound 1, (2S,3R,4R)-3-Hydroxy-6-methoxy-3-methyl-4-(methylamino)-7-methylene-2-pentyl-3,4,6,7-tetrahydro-pyrano[2,3-c]pyrrol-5(2H)-one] | 2.25 ± 0.21 | 1.35 ± 0.69 | 3.35 ± 0.92 | 3.97 ± 0.68 | 3.68 ± 0.81 | 12.7 ± 0.4 | 4.1 ± 0.44 | 3.25 ± 0.64 | 22.3 ± 0.44 | 2.75 ± 0.21
6 | C=C1C2=C(C(=O)N1OC)[C@@H](NCCO)[C@@](C)(O)[C@H](CCCCC)O2 [Compound 2, (2S,3R,4R)-3-Hydroxy-4-[(2-hydroxyethyl)amino]-6-methoxy-3-methyl-7-methylene-2-pentyl-3,4,6,7-tetra-hydropyrano[2,3-c]pyrrol-5(2H)-one] | 2.3 ± 0.57 | 2.05 ± 0.35 | 5.55 ± 1.48 | 3.5 ± 0.82 | 4.63 ± 0.04 | 15.1 ± 0.45 | 3.23 ± 1.07 | 5.5 ± 0.57 | 16.2 ± 0.26 | 2.6 ± 0.99
7 | C=C1C2=C(C(=O)N1OC)[C@@H](NCCCCO)[C@@](C)(O)[C@H](CCCCC)O2 [Compound 3, (2S,3R,4R)-3-Hydroxy-4-[(4-hydroxybutyl)amino]-6-methoxy-3-methyl-7-methylene-2-pentyl-3,4,6,7-tetra-hydropyrano[2,3-c]pyrrol-5(2H)-one] | 2.6 ± 0.57 | 1.95 ± 0.21 | 4.5 ± 1.56 | 2.7 ± 0.28 | 2.9 ± 0.98 | – | 3.05 ± 1.2 | 6.7 ± 0.28 | 15.2 ± 1.02 | 3.15 ± 1.77
